Measurements reported in US20240041042A1, “1-(PYRIDYL)-5-AZINYLPYRAZOLE DERIVATIVES, AND THEIR USE FOR CONTROL OF UNDESIRED PLANT GROWTH” (Bayer Aktiengesellschaft, priority 2020, published 2024).
Read-outs that look alike come from different tables or passages of the source.

What was measured:
Assay type in all cases: in vivo
[1] = tested on: Alopecurus myosuroides (ALOMY); assay: Post-emergence herbicidal action against ALOMY; settings: visual rating about 3 weeks after treatment vs untreated controls (100% = plants have died, 0% = like control plants)
In short: (§1)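 Post-emergence greenhouse spray, one-leaf stage, 600 l/ha water plus 0.5% additive; WP or EC formulations; application rates 320 g/ha or lower. Visual % damage vs untreated controls at ~3 weeks.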

[2] = tested on: Matricaria inodora (MATIN); assay: Post-emergence herbicidal action against MATIN
In short: as §1

[3] = tested on: Polygonum convolvulus (POLCO); assay: Pre-emergence herbicidal action against POLCO
In short: (§2)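 Seeds sown in pots and covered with soil; WP or EC formulations sprayed onto the soil surface at 600 l/ha water with 0.5% additive, at 320 g/ha or lower. Greenhouse growth for about 3 weeks, then visual scoring as % effect against untreated controls (100% = plants dead).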

[4] = tested on: Amaranthus retroflexus (AMARE); assay: Pre-emergence herbicidal action against AMARE; settings: visual scoring after about 3 weeks vs untreated controls
In short: as §2

[5] = tested on: Pharbitis purpurea (PHBPU); assay: Pre-emergence herbicidal action against PHBPU; settings: dosage 320 g/ha
In short: as §2

[6] = tested on: Triticum aestivum (TRZAS); settings: 20 g/ha; crop plant compatibility, effect vs untreated controls
In short: (§3)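 Crop injury rated visually in percent against untreated plants roughly 3 weeks after treatment (0% no effect, 100% plants dead). Compounds, as WP or EC with 0.5% additive in 600 l/ha water, were applied to the covering soil right after sowing; greenhouse growth. Suffixes a, b, c denote different dosages.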

Brassica napus (BRSNW) = settings: 20 g/ha, crop plant compatibility, in comparison to untreated controls
In short: as §3

[7] = tested on: Digitaria sanguinalis (DIGSA); assay: Pre-emergence herbicidal action against DIGSA
In short: as §2

[8] = tested on: Digitaria sanguinalis (DIGSA); assay: Post-emergence herbicidal action against DIGSA; settings: visual rating about 3 weeks after treatment
In short: as §1

[9] = tested on: Alopecurus myosuroides (ALOMY); assay: Pre-emergence herbicidal action against ALOMY; settings: scored visually after about 3 weeks, 100% = plants have died
In short: as §2

[10] = tested on: Abutilon theophrasti (ABUTH); assay: Pre-emergence herbicidal action against ABUTH; settings: Dosage column 320 g/ha (title prints 3200 g/ha); scored visually after about 3 weeks; 100% = plants have died
In short: as §2

Setaria viridis (SETVI) [11] = assay: Pre-emergence herbicidal action against SETVI
In short: as §2

[12] = tested on: Verconica persica (VERPE); assay: Post-emergence herbicidal action against VERPE
In short: as §1

Setaria viridis (SETVI) [13] = assay: Post-emergence herbicidal action against SETVI
In short: as §1

Viola tricolor (VIOTR) [14] = assay: Pre-emergence herbicidal action against VIOTR
In short: as §2

Avena fatua (AVEFA) [15] = assay: Pre-emergence herbicidal action against AVEFA; settings: visual scoring after about 3 weeks vs untreated controls
In short: as §2

[16] = tested on: Pharbitis purpurea (PHBPU); assay: Post-emergence herbicidal action against PHBPU; settings: dosage 320 g/ha
In short: as §1

Oryza sativa (ORYSA) = settings: crop plant compatibility
In short: (§4)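 Test crops were treated 2 to 3 weeks after sowing, once they reached one leaf, by spraying compound in water with 0.5% additive at 600 l/ha. Visual scoring compared them with untreated controls roughly 3 weeks on, and appendices a, b and c denote different doses.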

[17] = tested on: Matricaria inodora (MATIN); assay: Pre-emergence herbicidal action against MATIN
In short: as §2

[18] = tested on: Verconica persica (VERPE); assay: Pre-emergence herbicidal action against VERPE; settings: dosage 320 g/ha
In short: as §2

Lolium rigidum (LOLRI) [19] = assay: Pre-emergence herbicidal action against LOLRI
In short: as §2

Viola tricolor (VIOTR) [20] = assay: Post-emergence herbicidal action against VIOTR; settings: 320 g/ha
In short: as §1

Lolium rigidum (LOLRI) [21] = assay: Post-emergence herbicidal action against LOLRI; settings: dosage 320 g/ha
In short: as §1

[22] = tested on: Echinochloa crus-galli (ECHCG); assay: Pre-emergence herbicidal action against ECHCG; settings: dosage 320 g/ha
In short: as §2

[23] = tested on: Echinochloa crus-galli (ECHCG); assay: Post-emergence herbicidal action against ECHCG; settings: dosage 320 g/ha
In short: as §1

Zea mays (ZEAMX) [24] = settings: pre-emergence, 80 g/ha, crop plant compatibility, in comparison to untreated controls
In short: as §3

Glycine max (GLXMA) = settings: pre-emergence, 80 g/ha, crop plant compatibility, in comparison to untreated controls
In short: as §3

[25] = tested on: Amaranthus retroflexus (AMARE); assay: Post-emergence herbicidal action against AMARE
In short: as §1

[26] = tested on: Polygonum convolvulus (POLCO); assay: Post-emergence herbicidal action against POLCO; settings: dosage 320 g/ha
In short: as §1

Avena fatua (AVEFA) [27] = assay: Post-emergence herbicidal action against AVEFA; settings: 320 g/ha, visual rating about 3 weeks after treatment
In short: as §1

Zea mays (ZEAMX) [28] = settings: crop plant compatibility, effect vs untreated controls
In short: as §4

[29] = 80 g/ha, effect in comparison to untreated controls

COC(=O)[C@@H](C)Oc1nn(-c2ncccc2F)c(-c2cncc(F)c2)c1Br [Example I-15]
90%: Post-emergence action against ALOMY in % ([1]; 80 g/ha) | Post-emergence action against ALOMY in % ([1]; 320 g/ha) | Post-emergence action against MATIN in % ([2]; dosage 320 g/ha) | Pre-emergence action against POLCO in % ([3]; dosage 80 g/ha) | Post-emergence action against DIGSA in % ([8]; 80 g/ha) | Post-emergence action against DIGSA in % ([8]; 320 g/ha) | Pre-emergence action against ABUTH [10] | Post-emergence action against SETVI in % (Setaria viridis (SETVI) [13]; dosage 320 g/ha) | Post-emergence action against PHBPU in % [16] | Pre-emergence action against LOLRI in % (Lolium rigidum (LOLRI) [19]; dosage 80 g/ha) | Pre-emergence action against ECHCG in % [22]
0%: Post-emergence action against ORYSA in % (Oryza sativa (ORYSA); 20 g/ha, effect vs untreated controls)
80%: Post-emergence action against MATIN in % ([2]; dosage 80 g/ha) | Pre-emergence action against PHBPU in % [5] | Post-emergence action against VERPE in % ([12]; 320 g/ha, VERPE) | Post-emergence action against VERPE in % ([12]; dosage 80 g/ha) | Post-emergence action against SETVI in % (Setaria viridis (SETVI) [13]; dosage 80 g/ha) | Pre-emergence action against AVEFA in % (Avena fatua (AVEFA) [15]; 80 g/ha) | Post-emergence action against VIOTR in % (Viola tricolor (VIOTR) [20]) | Post-emergence action against LOLRI in % (Lolium rigidum (LOLRI) [21])
100%: Pre-emergence action against POLCO in % ([3]; dosage 320 g/ha) | Pre-emergence action against AMARE in % ([4]; 80 g/ha) | Pre-emergence action against AMARE in % ([4]; 320 g/ha) | Pre-emergence action against DIGSA in % ([7]; 80 g/ha, visual scoring after about 3 weeks vs untreated controls) | Pre-emergence action against DIGSA in % ([7]; dosage 320 g/ha) | Pre-emergence action against ALOMY ([9]; 80 g/ha) | Pre-emergence action against ALOMY ([9]; 320 g/ha) | Pre-emergence action against SETVI in % (Setaria viridis (SETVI) [11]; dosage 80 g/ha) | Pre-emergence action against SETVI in % (Setaria viridis (SETVI) [11]; dosage 320 g/ha) | Pre-emergence action against VIOTR in % (Viola tricolor (VIOTR) [14]; 320 g/ha, Viola tricolor) | Pre-emergence action against VIOTR in % (Viola tricolor (VIOTR) [14]; dosage 80 g/ha) | Pre-emergence action against AVEFA in % (Avena fatua (AVEFA) [15]; 320 g/ha) | Pre-emergence action against MATIN in % ([17]; dosage 80 g/ha) | Pre-emergence action against MATIN in % ([17]; dosage 320 g/ha) | Pre-emergence action against VERPE in % [18] | Pre-emergence action against LOLRI in % (Lolium rigidum (LOLRI) [19]; dosage 320 g/ha)
10%: Pre-emergence action against TRZAS [6] | Pre-emergence action against BRSNW in % (Brassica napus (BRSNW)) | Post-emergence action against ORYSA in % (Oryza sativa (ORYSA); [29])

C[C@@H](Oc1nn(-c2ncccc2F)c(-c2ccc(F)nc2)c1F)C(=O)O [Example I-306]
80%: Pre-emergence action against SETVI in % (Setaria viridis (SETVI) [11]; dosage 320 g/ha) | Pre-emergence action against VIOTR in % (Viola tricolor (VIOTR) [14]; 320 g/ha, Viola tricolor) | Pre-emergence action against AVEFA in % (Avena fatua (AVEFA) [15]; 320 g/ha) | Post-emergence action against AMARE in % ([25]; 80 g/ha, visual rating about 3 weeks after treatment vs untreated controls (100% = plants have died, 0% = like control plants)) | Post-emergence action against AMARE in % ([25]; 320 g/ha, visual rating about 3 weeks after treatment) | Post-emergence action against POLCO in % [26] | Post-emergence action against VIOTR in % (Viola tricolor (VIOTR) [20]) | Post-emergence action against AVEFA in % (Avena fatua (AVEFA) [27])
0%: Pre-emergence action against GLXMA in % (Glycine max (GLXMA)) | Post-emergence action against ORYSA in % (Oryza sativa (ORYSA); [29])
90%: Pre-emergence action against AMARE in % ([4]; 320 g/ha) | Post-emergence action against ECHCG in % [23] | Pre-emergence action against ALOMY ([9]; 320 g/ha) | Post-emergence action against VERPE in % ([12]; 320 g/ha, VERPE) | Post-emergence action against SETVI in % (Setaria viridis (SETVI) [13]; dosage 320 g/ha) | Pre-emergence action against MATIN in % ([17]; dosage 80 g/ha) | Pre-emergence action against MATIN in % ([17]; dosage 320 g/ha) | Post-emergence action against LOLRI in % (Lolium rigidum (LOLRI) [21])
100%: Post-emergence action against ALOMY in % ([1]; 320 g/ha) | Pre-emergence action against LOLRI in % (Lolium rigidum (LOLRI) [19]; dosage 320 g/ha)
20%: Pre-emergence action against ZEAMX in % (Zea mays (ZEAMX) [24])

C[C@@H](Oc1nn(-c2ccccn2)c(-c2ccc(Cl)nc2)c1Br)C(=O)O [Example I-240]
80%: Post-emergence action against ALOMY in % ([1]; 320 g/ha) | Post-emergence action against POLCO in % [26] | Post-emergence action against VIOTR in % (Viola tricolor (VIOTR) [20]) | Post-emergence action against LOLRI in % (Lolium rigidum (LOLRI) [21])
0%: Post-emergence action against ORYSA in % (Oryza sativa (ORYSA); [29]) | Post-emergence action against ORYSA in % (Oryza sativa (ORYSA); 320 g/ha, effect in comparison to untreated controls)
90%: Pre-emergence action against AMARE in % ([4]; 320 g/ha) | Pre-emergence action against DIGSA in % ([7]; dosage 320 g/ha) | Pre-emergence action against ALOMY ([9]; 320 g/ha) | Pre-emergence action against VIOTR in % (Viola tricolor (VIOTR) [14]; 320 g/ha, Viola tricolor) | Pre-emergence action against LOLRI in % (Lolium rigidum (LOLRI) [19]; dosage 320 g/ha)
20%: Pre-emergence action against GLXMA in % (Glycine max (GLXMA)) | Post-emergence action against ZEAMX in % (Zea mays (ZEAMX) [28]; 320 g/ha)
10%: Post-emergence action against ZEAMX in % (Zea mays (ZEAMX) [28]; 80 g/ha)
